Assay: recombinant barcode read abundance after kanamycin selection (control-corrected) (log10(CPM+1)); higher = more efficient recombination; sequences stand for … in AGTGCAGAGAAAATCGGCCAGTTTTCTCTGCCTGCAGTCCGCATGCCGT…AGATTTATGCAGCGGACTGCCTTTCTCCCAAAGTGATAAACCGGACAGTATCATGGACCGGTTTTCCCGGTAATCCGTATTTGCAAGGTTGGTTTCACT; site = the 11-nt target
Summary of the method: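 A promoter, a target, a barcode and the first 104 bridge RNA bases under J23119 made up each oligo. Oligos were Gibson-cloned into a vector bearing the other 73 bp and a T7-inducible recombinase, then co-electroporated into E. coli with a donor plasmid and plated in duplicate on chloramphenicol/ampicillin LB agar (control) or chloramphenicol/ampicillin/kanamycin with 0.1 mM IPTG. Recombination efficiency is the averaged, control-corrected counts per million of recombinant-junction barcodes. Reported values are log10(CPM+1).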
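Further: IS621 recombinase and bridge RNA in Escherichia coli cells.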

Going from “CTCATGTCTTGGGTTCTAACCTGTTGCTT (site CTCATGTCTAA)” to “CTCATGTCTTGGGTTCTAACCTGTTGCTT (site TTCATGTCTAA)”, the “recombinant barcode read abundance (log10)” value falls from 1.44 to 0.222.

“CTCATTCCTTGGGTTCTAACCTGTTGCCT (site CTCATTCCTAA)” and “CTCATTCCTTGGGTTCTAACCTGTTGCCT (site CTCATTCCTAC)” are within 0.2 log units of each other in “recombinant barcode read abundance (log10)” value: 0.0318 for the first, 0.216 for the second.

“CTCATTCCTTGGGTTCTAACCTGTTGCCT (site CTCATTCCTAG)” and “CTCATTCCTTGGGTTCTAACCTGTTGCCT (site CTCATTCCTAT)” are within 0.2 log units of each other in “recombinant barcode read abundance (log10)” value: 0.129 for the first, 0.0571 for the second.

Compared with “CTCCAAGCTTGGGTTCTAACCTGTTGCCT (site CTACAAGCTAG)”, “CTCCAAGCTTGGGTTCTAACCTGTTGCCT (site CTCCAAGCTAG)” is higher in “recombinant barcode read abundance (log10)” value: 0.105 for the first, 0.665 for the second.

“CTCCAAGCTTGGGTTCTAACCTGTTGCCT (site CTGCAAGCTAG)” and “CTCCAAGCTTGGGTTCTAACCTGTTGCCT (site CTTCAAGCTAG)” are within 0.2 log units of each other in “recombinant barcode read abundance (log10)” value: 0.0619 for the first, 0.0961 for the second.

First: CTCCAATCTTGGGTTCTAACCTGTTGCCT (site CTCCAATCTAG)
Second: CTCCAATCTTGGGTTCTAACCTGTTGCCT (site CTCCTATCTAG)
The “recombinant barcode read abundance (log10)” value of the first is higher: 0.666 for the first, 0.113 for the second.

Compared with “CTCCAGCCTTGGGTTCTAACCTGTTGCGG (site CTCCAACCTCC)”, “CTCCAGCCTTGGGTTCTAACCTGTTGCGG (site CTCCAGCCTCC)” is higher in “recombinant barcode read abundance (log10)” value: 0.411 for the first, 1.49 for the second.

Going from “CTCCCAACTTGGGTTCTAACCTGTTGCCG (site CTCCCAACTCG)” to “CTCCCAACTTGGGTTCTAACCTGTTGCCG (site CTCCCTACTCT)”, the “recombinant barcode read abundance (log10)” value rises from 0.136 to 0.356.

“CTCCCAACTTGGGTTCTAACCTGTTGCCT (site CTCCCAACTAG)” and “CTCCCAACTTGGGTTCTAACCTGTTGCCT (site TTCCCTACTAG)” are within 0.2 log units of each other in “recombinant barcode read abundance (log10)” value: 0.379 for the first, 0.446 for the second.

Going from “CTCCCATCTTGGGTTCTAACCTGTTGCGT (site CTCCCATCTAC)” to “CTCCCATCTTGGGTTCTAACCTGTTGCGT (site CTCCGATCTCC)”, the “recombinant barcode read abundance (log10)” value falls from 0.874 to 0.165.

Going from “CTCCCTTCTTGGGTTCTAACCTGTTGCTT (site CTCCCTTCTAA)” to “CTCCCTTCTTGGGTTCTAACCTGTTGCTT (site CTTCCTTCTAG)”, the “recombinant barcode read abundance (log10)” value falls from 0.534 to 0.104.

“CTCCGAGCTTGGGTTCTAACCTGTTGCAC (site CTCCGAGCTGT)” and “CTCCGAGCTTGGGTTCTAACCTGTTGCAC (site GGAACGACTAC)” are within 0.2 log units of each other in “recombinant barcode read abundance (log10)” value: 0.201 for the first, 0.0202 for the second.

“CTCCGATCTTGGGTTCTAACCTGTTGCGG (site CTCCCATCTAC)” and “CTCCGATCTTGGGTTCTAACCTGTTGCGG (site CTCCGATCTCC)” are within 0.2 log units of each other in “recombinant barcode read abundance (log10)” value: 0 for the first, 0.0434 for the second.

Going from “CTCCGCCCTTGGGTTCTAACCTGTTGCCT (site CTCCGCCCTAG)” to “CTCCGCCCTTGGGTTCTAACCTGTTGCCT (site CTCCGTCCTAC)”, the “recombinant barcode read abundance (log10)” value falls from 0.776 to 0.0714.

Going from “CTCCGGGCTTGGGTTCTAACCTGTTGCAG (site CTCCGGGCTCT)” to “CTCCGGGCTTGGGTTCTAACCTGTTGCAG (site TATACACCTAC)”, the “recombinant barcode read abundance (log10)” value falls from 1.81 to 0.0879.

First: CTCCGGTCTTGGGTTCTAACCTGTTGCTT (site CACGGGTCTAA)
Second: CTCCGGTCTTGGGTTCTAACCTGTTGCTT (site CTCCGGTCTAA)
The “recombinant barcode read abundance (log10)” value of the first is lower: 0.22 for the first, 1.77 for the second.

First: CTCCGTACTTGGGTTCTAACCTGTTGCAT (site CTCCGAACTAA)
Second: CTCCGTACTTGGGTTCTAACCTGTTGCAT (site CTCCGTACTAT)
The “recombinant barcode read abundance (log10)” value of the first is lower: 0.0945 for the first, 1.14 for the second.

Compared with “CTCCGTCCTTGGGTTCTAACCTGTTGCCG (site CTCCGTCCTCG)”, “CTCCGTCCTTGGGTTCTAACCTGTTGCCG (site GCCCGTCCTCG)” is lower in “recombinant barcode read abundance (log10)” value: 1.25 for the first, 0.272 for the second.

Compared with “CTCCGTCCTTGGGTTCTAACCTGTTGCCT (site CTCCGTCCTAG)”, “CTCCGTCCTTGGGTTCTAACCTGTTGCCT (site CTGCGTCCTAG)” is lower in “recombinant barcode read abundance (log10)” value: 1.5 for the first, 0.252 for the second.

“CTCCGTCCTTGGGTTCTAACCTGTTGCTT (site CTCCGACCTAA)” and “CTCCGTCCTTGGGTTCTAACCTGTTGCTT (site CTCCGCCCTAA)” are within 0.2 log units of each other in “recombinant barcode read abundance (log10)” value: 0.106 for the first, 0.111 for the second.

“CTCCGTCCTTGGGTTCTAACCTGTTGCTT (site CTCCGGCCTAA)” and “CTCCGTCCTTGGGTTCTAACCTGTTGCTT (site CTCCGTCCTAA)” are within 0.2 log units of each other in “recombinant barcode read abundance (log10)” value: 0.589 for the first, 0.445 for the second.

For “CTCCTATCTTGGGTTCTAACCTGTTGCCT (site CTCCAATCTAG)”, the “recombinant barcode read abundance (log10)” value was 0.238.

From the supplement of paper PMC11208160
